The source of these data is the NIST ThermoML archive (doi:10.1016/j.jct.2013.08.029).

A short description of this series: xn = mol fraction of the nth substance listed. Conditions: 101 kPa, Liquid, Vibrating tube method, x2 = 0.5.

The mass density is the mass of a sample divided by its volume.

SMILES strings stand for the structures. ± gives the expanded uncertainty stated by the source.

`O=C(O)CC(=O)O` [propanedioic acid] + C[N+](C)(C)CCO.[Cl-]: the mass density by setting is: (303.15 K) 1189.9 ± 0.6 kg/m3; (308.15 K) 1187.3 ± 0.6 kg/m3; (313.15 K) 1184.7 ± 0.6 kg/m3; (318.15 K) 1182.1 ± 0.6 kg/m3; (323.15 K) 1179.7 ± 0.6 kg/m3.
